Experimental data reported in patent US20090246290A1, “Lipid metabolism improving agent containing hydrogen molecules” (priority 2006, published 2009).

Legend:
[1] = tested on: apoE knockout mice (apoE-KO mice); conditions: approximately 2% hydrogen gas inhalation, vs control group
Description: (§1) The size of this container was as follows: W: 550 mm; L: 400 mm; and H: 300 mm.
(§2) Then, effects on body fat and the liver were examined. 9-week-old male apoE-KO mice were placed in cages (4 mice each). One group was designated as a control group and normal air was supplied thereto.
Next, each mouse was analyzed with an X-ray CT for laboratory animals (LaTheta LCT-100A, Aloka Co., Ltd.). General anesthesia induction was carried out by supplying an anesthetic gas mixture (oxygen: 0.3 L/min; nitrous-oxide gas: 0.7 L/min; Sevofrane: 3% (Maruishi Pharmaceutical Co., Ltd.)) to each mouse with the use of a general anesthesia apparatus for small animals (Soft Lander, NeuroScience, Inc). CT scanning was carried out under anesthesia so as to obtain whole-body images (FIG. 9, upper images). Then, fat regions were determined based on CT values so as to specify subcutaneous fat and visceral fat (FIG. 9, lower images). Each cross-sectional area was multiplied by the thickness so as to obtain the volume, followed by estimation of the fat and muscle weights. […] In addition, fat percentages were obtained by the following equation.
Fat percentage (%)=fat [visceral fat+subcutaneous fat]/(fat [visceral fat+subcutaneous fat]+muscle)×100

[2] = hydrogen pressure of 1 atmosphere, room temperature; cited from earlier work
[3] = tested on: apoE knockout mice (apoE-KO mice); assay: Serum items, organ weights and fat accumulated in the liver 12 weeks after hydrogen gas inhalation; assay type: in vivo, mouse; conditions: 12 weeks hydrogen gas inhalation, vs control group
Description: The amounts of the following items in serum were measured: total cholesterol, LDL cholesterol, HDL cholesterol, neutral fat, AST, ALT, creatinine kinase, total protein, lactate dehydrogenase, urea nitrogen, total bilirubin, creatinine, alkaline phosphatase, choline esterase, and albumine. […] Each liver was fixed with 4% paraformaldehyde overnight, followed by dehydration with sucrose. Thereafter, frozen sections were prepared and stained with Oil-Red O. Then, the amount of lipids accumulated in the liver was calculated (FIG. 13A, images). The stained portions indicate fat accumulation.

[4] = tested on: apoE knockout mice (apoE-KO mice); conditions: 11 weeks after hydrogen administration, approximately 2% hydrogen gas inhalation
Excerpt: as §1, §2
11 weeks after hydrogen administration, the mice were subjected to measurement of muscle force. Upon measurement, each mouse was allowed to hold a mesh wire of the ceiling and the time period until it fell from the ceiling was determined.

[5] = tested on: apoE knockout mice (apoE-KO mice); conditions: inhalation of gas mixture with approximately 2% hydrogen gas
Excerpt: as §1, §2

Compound: [HH] [hydrogen gas]
- amount of subcutaneous fat (CT) [1]: significantly decreased
- amount of total fat (CT) [1]: significantly decreased
- amount of visceral fat (CT) [1]: significantly decreased
- fat percentage (fat/(fat+muscle) x100, CT) [1]: more significantly decreased
- hydrogen dissolved in 1 L of water [2]: approximately 17.5 mL
- kidney weight [3]: significantly decreased
- liver weight [3]: significantly decreased
- serum ALT [3]: no difference was observed
- serum AST [3]: no difference was observed
- serum HDL cholesterol [3]: no difference was observed
- serum LDL cholesterol [3]: no difference was observed
- serum albumine [3]: no difference was observed
- serum alkaline phosphatase [3]: no difference was observed
- serum choline esterase [3]: no difference was observed
- serum creatinine [3]: no difference was observed
- serum creatinine kinase [3]: no difference was observed
- serum lactate dehydrogenase [3]: no difference was observed
- serum neutral fat [3]: no difference was observed
- serum total bilirubin [3]: no difference was observed
- serum total cholesterol [3]: no difference was observed
- serum total protein [3]: no difference was observed
- serum urea nitrogen [3]: no difference was observed
- muscle force: time period until mouse fell from mesh wire of the ceiling [4]: significantly long time
- weight increases vs control group [5]: significantly suppressed
